The record followed here is ChEMBL document CHEMBL2407040, “Discovery and optimization of 7-aminofuro[2,3-c]pyridine inhibitors of TAK1” (Bioorg Med Chem Lett, 2013).

Data set [1] has as its target T1, Mitogen-activated protein kinase kinase kinase 7 (Homo sapiens, UniProt O43318).
T1 sequence (O43318 whole entry): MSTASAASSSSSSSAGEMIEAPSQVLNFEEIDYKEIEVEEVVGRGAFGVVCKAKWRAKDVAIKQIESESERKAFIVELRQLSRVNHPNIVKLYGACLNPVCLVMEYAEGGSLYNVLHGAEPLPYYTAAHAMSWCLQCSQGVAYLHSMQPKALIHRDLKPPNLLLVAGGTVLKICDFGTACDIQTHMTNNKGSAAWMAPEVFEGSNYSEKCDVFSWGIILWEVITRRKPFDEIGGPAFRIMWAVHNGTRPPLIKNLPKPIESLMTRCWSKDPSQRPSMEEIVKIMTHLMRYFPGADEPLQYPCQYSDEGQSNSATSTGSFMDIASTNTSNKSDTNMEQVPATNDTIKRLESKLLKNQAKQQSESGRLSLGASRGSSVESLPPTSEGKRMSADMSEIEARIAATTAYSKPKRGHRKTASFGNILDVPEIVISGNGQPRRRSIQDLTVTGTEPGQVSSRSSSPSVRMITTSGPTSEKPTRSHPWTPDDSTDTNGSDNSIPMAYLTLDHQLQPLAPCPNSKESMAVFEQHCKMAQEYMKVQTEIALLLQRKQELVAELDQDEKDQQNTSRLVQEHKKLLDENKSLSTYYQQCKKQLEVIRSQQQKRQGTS
As to the kind of experiment: Inhibition of TAK1 in human HCT116 cells assessed as inhibition of TNF-alpha-stimulated JNK phosphorylation. The format is cell-based, HCT-116.

A further data set deals with TAK1/TAB1 (Homo sapiens, UniProt O43318). As to the kind of experiment: Inhibition of truncated TAK1-TAB1(unknown origin) using MKK7 as substrate by ALPHAScreen assay in presence of ATP. It counts as protein-complex assay. On the technique in general: Alpha assays give light when donor and acceptor beads are brought close together.
Data set [2] in a line: Metabolic stability in human liver microsomes assessed as extraction ratio. The settings on record: read-out: ERH. It counts as ADME, Microsome.
A short description of data set [3]: Metabolic stability in mouse liver microsomes assessed as extraction ratio. It counts as ADME, Microsome. Particulars: read-out: ERH. For orientation: Liver microsomes are vesicles of endoplasmic reticulum, rich in cytochrome P450 enzymes.

Each structure is given as a SMILES string.

TAK1/TAB1, sequence (Q15750 whole entry, one chain of several, the tested form may be a part): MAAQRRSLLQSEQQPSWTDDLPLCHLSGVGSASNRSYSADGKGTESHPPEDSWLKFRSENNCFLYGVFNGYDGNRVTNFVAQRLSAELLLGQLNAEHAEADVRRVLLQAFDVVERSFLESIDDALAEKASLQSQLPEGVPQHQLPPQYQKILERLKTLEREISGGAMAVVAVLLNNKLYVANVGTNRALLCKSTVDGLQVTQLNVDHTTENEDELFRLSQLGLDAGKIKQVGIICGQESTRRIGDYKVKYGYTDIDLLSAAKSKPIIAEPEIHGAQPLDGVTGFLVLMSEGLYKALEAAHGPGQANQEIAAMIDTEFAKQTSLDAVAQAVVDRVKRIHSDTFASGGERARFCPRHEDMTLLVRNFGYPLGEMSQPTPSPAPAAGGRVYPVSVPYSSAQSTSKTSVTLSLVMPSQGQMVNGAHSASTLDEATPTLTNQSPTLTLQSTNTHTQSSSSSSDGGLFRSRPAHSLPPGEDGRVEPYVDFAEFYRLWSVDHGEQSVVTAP

A word on the IC50: it is the concentration needed to halve the response being measured. With `CC(=O)N1CCC(n2cc(-c3cnc(N)c4oc(-c5cccc(N(C)C)c5)cc34)cn2)CC1`, the 50% inhibitory concentration (IC50) in data set [1] amounted to 690 nM; on TAK1/TAB1 it was 2400 nM. Consider `CC(=O)N1CCC(n2cc(-c3cnc(N)c4oc(-c5ccc(OC(F)(F)F)cc5)cc34)cn2)CC1`, for which the IC50 in data set [1] came out at 8000 nM; at TAK1/TAB1, 3500 nM. In the case of `CC(=O)N1CCC(n2cc(-c3cnc(N)c4oc(-c5ccc(C#N)cc5)cc34)cn2)CC1`, the results for the IC50 (in data set [1]; on TAK1/TAB1) were 2800 nM and 2500 nM, respectively.

`CC(=O)N1CCC(n2cc(-c3cnc(N)c4oc(-c5ccc(C(=O)N(C)C)cc5)cc34)cn2)CC1`: the 50% inhibitory concentration (IC50) on TAK1/TAB1 is more than 30000 nM.

On to `CC(=O)N1CCC(n2cc(-c3cnc(N)c4oc(-c5ccc(CO)cc5)cc34)cn2)CC1`, for which the IC50 was 4400 nM in data set [1] and 2800 nM on TAK1/TAB1. As to `CC(=O)N1CCC(n2cc(-c3cnc(N)c4oc(-c5ccc(CC#N)cc5)cc34)cn2)CC1`, the results for the IC50 (in data set [1]; on TAK1/TAB1) were 1900 nM and 1500 nM, respectively. As to `CC(=O)N1CCC(n2cc(-c3cnc(N)c4oc(-c5cccc6nnsc56)cc34)cn2)CC1`, the hepatic extraction ratio in data set [2] stood at 0.68; in data set [3], 0.7. The IC50 in data set [1] came out at 12 nM; on TAK1/TAB1, 4 nM. As for `CC(=O)N1CCC(n2cc(-c3cnc(N)c4oc(-c5csc6cnccc56)cc34)cn2)CC1`, the hepatic extraction ratio in data set [2] came to 0.68; in data set [3] it was 0.72. Moreover, the IC50 in data set [1] came to 110 nM; at TAK1/TAB1 it was 30 nM. For the compound `CC(=O)N1CCC(n2cc(-c3cnc(N)c4oc(-c5cn(C)c6cnccc56)cc34)cn2)CC1`, the hepatic extraction ratio was determined as 0.64 in data set [2] and 0.91 in data set [3]. Also, the IC50 in data set [1] amounted to 340 nM; on TAK1/TAB1 it was 18 nM.

`CC(=O)N1CCC(n2cc(-c3cnc(N)c4oc(-c5cccc6ccccc56)cc34)cn2)CC1`: the figures for the hepatic extraction ratio in data set [2] and in data set [3] were 0.66 and 0.77, respectively. Besides, the IC50 in data set [1] amounted to 1200 nM; at TAK1/TAB1, 1000 nM. As to `CC(=O)N1CCC(n2cc(-c3cnc(N)c4oc(-c5csc6ccccc56)cc34)cn2)CC1`, the hepatic extraction ratio in data set [2] is 0.68; in data set [3], 0.85. For the same compound, the IC50 in data set [1] was 440 nM; at TAK1/TAB1, 340 nM. Consider `CC(=O)N1CCC(n2cc(-c3cnc(N)c4oc(-c5cnc6cnccn56)cc34)cn2)CC1`, for which the hepatic extraction ratio was 0 in data set [2] and 0.52 in data set [3]. The IC50 on TAK1/TAB1 is 1400 nM. Consider `CC(=O)N1CCC(n2cc(-c3cnc(N)c4oc(-c5cccc(C#N)c5)cc34)cn2)CC1`, for which the figures for the IC50 (in data set [1]; at TAK1/TAB1) were 370 nM and 250 nM, respectively. With `CC(=O)N1CCC(n2cc(-c3cnc(N)c4oc(-c5cccc(C(F)(F)F)c5)cc34)cn2)CC1`, the concentration for half-maximal inhibition (IC50) stood at 1600 nM in data set [1] and 2800 nM on TAK1/TAB1. For `CC(=O)c1cccc(-c2cc3c(-c4cnn(C5CCN(C(C)=O)CC5)c4)cnc(N)c3o2)c1`, in that order: 1000 nM and 2800 nM. For `CC(=O)N1CCC(n2cc(-c3cnc(N)c4oc(-c5cccc(C(N)=O)c5)cc34)cn2)CC1`, in that order: 3100 nM and 530 nM. For `CC(=O)N1CCC(n2cc(-c3cnc(N)c4oc(-c5cccc(CN)c5)cc34)cn2)CC1`, the half-inhibitory concentration (IC50) in data set [1] came out at 4000 nM; at TAK1/TAB1 it was 790 nM. As for `CC(=O)N1CCC(n2cc(-c3cnc(N)c4oc(-c5cccc(CO)c5)cc34)cn2)CC1`, the half-maximal inhibitory concentration (IC50) was 470 nM in data set [1] and 850 nM at TAK1/TAB1. With `CSc1ccc(-c2cc3c(-c4cnn(C5CCN(C(C)=O)CC5)c4)cnc(N)c3o2)cc1`, the IC50 stood at 5200 nM in data set [1] and 17500 nM on TAK1/TAB1. `CC(=O)N1CCC(n2cc(-c3cnc(N)c4oc(-c5ccc(S(C)(=O)=O)cc5)cc34)cn2)CC1`: the IC50 in data set [1] was more than 20000 nM; on TAK1/TAB1 it was 25700 nM. Take `CC(=O)N1CCC(n2cc(-c3cnc(N)c4oc(-c5ccc(N)cc5)cc34)cn2)CC1`: the figures for the IC50 (in data set [1]; at TAK1/TAB1) were 1000 nM and 1800 nM, respectively. Turning to `CC(=O)N1CCC(n2cc(-c3cnc(N)c4oc(-c5ccc(NS(C)(=O)=O)cc5)cc34)cn2)CC1`, at TAK1/TAB1, the 50% inhibitory concentration (IC50) came to 4900 nM. For the compound `CC(=O)N1CCC(n2cc(-c3cnc(N)c4oc(-c5ccc(O)cc5)cc34)cn2)CC1`, the figures for the IC50 (in data set [1]; at TAK1/TAB1) were 500 nM and 270 nM, respectively.

In the case of `CC(=O)N1CCC(n2cc(-c3cnc(N)c4oc(-c5cnsc5)cc34)cn2)CC1`, the half-inhibitory concentration (IC50) on TAK1/TAB1 was 880 nM. Regarding `CSc1ccccc1-c1cc2c(-c3cnn(C4CCN(C(C)=O)CC4)c3)cnc(N)c2o1`, the IC50 amounted to 500 nM in data set [1] and 430 nM on TAK1/TAB1. For `CC(=O)Nc1ccccc1-c1cc2c(-c3cnn(C4CCN(C(C)=O)CC4)c3)cnc(N)c2o1`, at TAK1/TAB1, the IC50 was more than 30000 nM. Take `CC(=O)N1CCC(n2cc(-c3cnc(N)c4oc(-c5ccccc5C#N)cc34)cn2)CC1`: the values for the IC50 (in data set [1]; at TAK1/TAB1) were 1700 nM and 560 nM, respectively.

For the compound `CC(=O)N1CCC(n2cc(-c3cnc(N)c4oc(-c5ccccc5C(F)(F)F)cc34)cn2)CC1`, at TAK1/TAB1, the half-inhibitory concentration (IC50) is more than 30000 nM. As for `CC(=O)c1ccccc1-c1cc2c(-c3cnn(C4CCN(C(C)=O)CC4)c3)cnc(N)c2o1`, the half-inhibitory concentration (IC50) in data set [1] stood at 3100 nM; on TAK1/TAB1, 5400 nM. On to `CC(=O)N1CCC(n2cc(-c3cnc(N)c4oc(-c5ccccc5C(N)=O)cc34)cn2)CC1`, for which the IC50 in data set [1] is 4500 nM; at TAK1/TAB1 it was 6000 nM. Take `CC(=O)N1CCC(n2cc(-c3cnc(N)c4oc(-c5ccccc5CO)cc34)cn2)CC1`: the concentration for half-maximal inhibition (IC50) in data set [1] was 1500 nM; at TAK1/TAB1, 750 nM. Consider `COCc1ccccc1-c1cc2c(-c3cnn(C4CCN(C(C)=O)CC4)c3)cnc(N)c2o1`, for which the IC50 in data set [1] stood at 1800 nM; on TAK1/TAB1, 1400 nM. For `CC(=O)N1CCC(n2cc(-c3cnc(N)c4oc(-c5ccccc5CC#N)cc34)cn2)CC1`, in that order: 530 nM and 250 nM. Turning to `CSc1cccc(-c2cc3c(-c4cnn(C5CCN(C(C)=O)CC5)c4)cnc(N)c3o2)c1`, the 50% inhibitory concentration (IC50) in data set [1] came out at 1200 nM; on TAK1/TAB1, 4300 nM. `CC(=O)N1CCC(n2cc(-c3cnc(N)c4oc(-c5cccc(S(C)(=O)=O)c5)cc34)cn2)CC1`: the half-inhibitory concentration (IC50) in data set [1] came out at 1100 nM; at TAK1/TAB1, 4900 nM. In the case of `CC(=O)N1CCC(n2cc(-c3cnc(N)c4oc(-c5cccc(S(N)(=O)=O)c5)cc34)cn2)CC1`, the IC50 at TAK1/TAB1 was determined as 1800 nM. For `CC(=O)N1CCC(n2cc(-c3cnc(N)c4oc(-c5cccc(S(=O)(=O)N(C)C)c5)cc34)cn2)CC1`, the IC50 was found to be 1100 nM in data set [1] and 1400 nM on TAK1/TAB1. As for `CC(=O)N1CCC(n2cc(-c3cnc(N)c4oc(-c5cccc([N+](=O)[O-])c5)cc34)cn2)CC1`, the IC50 in data set [1] was 200 nM; on TAK1/TAB1, 89 nM. For `CC(=O)N1CCC(n2cc(-c3cnc(N)c4oc(-c5cccc(N)c5)cc34)cn2)CC1`, in that order: 510 nM and 770 nM. For `CC(=O)Nc1cccc(-c2cc3c(-c4cnn(C5CCN(C(C)=O)CC5)c4)cnc(N)c3o2)c1`, in that order: 9000 nM and 3200 nM. `CC(=O)N1CCC(n2cc(-c3cnc(N)c4oc(-c5cccc(O)c5)cc34)cn2)CC1`: the figures for the IC50 (in data set [1]; on TAK1/TAB1) were 610 nM and 61 nM, respectively. With `COc1cccc(-c2cc3c(-c4cnn(C5CCN(C(C)=O)CC5)c4)cnc(N)c3o2)c1`, the results for the IC50 (in data set [1]; at TAK1/TAB1) were 1200 nM and 1800 nM, respectively. Regarding `COCCOc1cccc(-c2cc3c(-c4cnn(C5CCN(C(C)=O)CC5)c4)cnc(N)c3o2)c1`, the IC50 worked out at 2700 nM in data set [1] and 3200 nM on TAK1/TAB1. For `CC(=O)N1CCC(n2cc(-c3cnc(N)c4oc(-c5cccc(OC(F)(F)F)c5)cc34)cn2)CC1`, the IC50 in data set [1] was 1800 nM; at TAK1/TAB1 it was 3500 nM. As to `CC(=O)N1CCC(n2cc(-c3cnc(N)c4oc(-c5ccccc5)cc34)cn2)CC1`, the IC50 stood at 520 nM in data set [1] and 1100 nM on TAK1/TAB1. With `CC(=O)N1CCC(n2cc(-c3cnc(N)c4oc(-c5cccnc5)cc34)cn2)CC1`, the IC50 on TAK1/TAB1 is 710 nM. `CC(=O)N1CCC(n2cc(-c3cnc(N)c4oc(C5=CCNCC5)cc34)cn2)CC1`: on TAK1/TAB1, the IC50 worked out at 800 nM. Consider `CC(=O)N1CCC(n2cc(-c3cnc(N)c4oc(C5=CCCCC5)cc34)cn2)CC1`, for which the 50% inhibitory concentration (IC50) at TAK1/TAB1 turned out to be 460 nM. For `CC(=O)N1CCC(n2cc(-c3cnc(N)c4oc(C5CCCCC5)cc34)cn2)CC1`, at TAK1/TAB1, the IC50 is 650 nM. Still for that read-out and setting: the result for `CC(=O)N1CCC(n2cc(-c3cnc(N)c4oc(C5=CCCC5)cc34)cn2)CC1` reads 1200 nM; that for `CC(=O)N1CCC(n2cc(-c3cnc(N)c4oc(C5CCCC5)cc34)cn2)CC1`, 2100 nM; that for `CC(=O)N1CCC(n2cc(-c3cnc(N)c4oc(-c5ccsc5)cc34)cn2)CC1`, 480 nM. As for `CC(=O)N1CCC(n2cc(-c3cnc(N)c4oc(-c5cn[nH]c5)cc34)cn2)CC1`, the figures for the half-inhibitory concentration (IC50) (in data set [1]; on TAK1/TAB1) were 9100 nM and 130 nM, respectively.

Regarding `CC(=O)N1CCC(n2cc(-c3cnc(N)c4oc(-c5cnn(C)c5)cc34)cn2)CC1`, at TAK1/TAB1, the half-maximal inhibitory concentration (IC50) came to 1600 nM. Still for that read-out and setting: the result for `CC(=O)N1CCC(n2cc(-c3cnc(N)c4oc(-c5cnco5)cc34)cn2)CC1` reads 1200 nM.
